The target of the test is GDP-bound KRAS protein (aa 1-169), containing both G12C and C118A amino acid substitutions (Homo sapiens, UniProt P01116, C118A/G12C). Put plainly: Coupled nucleotide exchange assay (SOS-mediated, AlphaScreen). The class given is biochemical. The settings on record: 5 min compound pre-incubation.
Sequence of GDP-bound KRAS protein (aa 1-169), containing both G12C and C118A amino acid substitutions (P01116 1-169 isoform P01116-2 G12C/C118A): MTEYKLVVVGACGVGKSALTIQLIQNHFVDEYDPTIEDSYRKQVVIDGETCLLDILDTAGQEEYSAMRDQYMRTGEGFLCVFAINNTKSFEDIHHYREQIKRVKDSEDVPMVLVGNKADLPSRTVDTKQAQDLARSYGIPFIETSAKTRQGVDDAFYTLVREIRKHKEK
Regarding `C=CC(=O)N1CCN(c2nc(=O)n(-c3c(CC)cccc3CC)c3nc(N4CCOC(C5CC5)C4)c(Cl)cc23)[C@@H](C)C1` (stereo partly drawn) [Example 66-25, 6-chloro-7-(2-cyclopropyl-4-morpholinyl)-1-(2,6-diethylphenyl)-4-((2S)-2-methyl-4-(2-propenoyl)-1-piperazinyl)pyrido[2,3-d]pyrimidin-2(1H)-one], the “Coupled exchange IC50 (5 min)” value is given as 95 | nda μM.

`C=CC(=O)N1CC=C(c2cc(=O)n(CC(C)(C)C)c3nc(-c4ccccc4F)c(Cl)cc23)CC1` [Example 124, 6-Chloro-1-(2,2-dimethylpropyl)-7-(2-fluorophenyl)-4-(1-(2-propenoyl)-1,2,3,6-tetrahydro-4-pyridinyl)-1,8-naphthyridin-2(1H)-one]: the “Coupled exchange IC50 (5 min)” value is reported as 6.22 | nda μM.

`C=CC(=O)N1CCN(c2nc(=O)n(-c3c(F)cccc3C(C)C)c3nc(-c4c(O)cccc4F)c(F)cc23)[C@@H](C)C1` (single isomer, unassigned) [Example 59-2-2]: the “Coupled exchange IC50 (5 min)” value was 7.49 | nda μM.

On to `C=CC(=O)N1CCN(c2nc(=O)n(CC(F)(F)F)c3nc(-c4c(O)cccc4F)c(Cl)cc23)[C@@H](C)C1` [Example 54-7, 6-chloro-7-(2-fluoro-6-hydroxyphenyl)-4-((2S)-2-methyl-4-(2-propenoyl)-1-piperazinyl)-1-(2,2,2-trifluoroethyl) pyrido [2,3-d]pyrimidin-2(1H)-one], for which the “Coupled exchange IC50 (5 min)” value is listed as 1.75 | nda μM.

On to `C=CC(=O)N1C[C@@H](C)N(c2nc(=O)n(-c3c(C)ccnc3C(C)C)c3nc(-c4ccccc4F)c(Cl)cc23)[C@H](C)C1` (single isomer, unassigned) [Example 78-16], for which the “Coupled exchange IC50 (5 min)” value is listed as 16.6 | nda μM.

On to `C=CC(=O)N1CCN(c2nc(=O)n(-c3c(C)cccc3C(C)C)c3nc(-c4nc(N)ccc4Cl)c(F)cc23)[C@@H](C)C1` [Example 71-1, 7-(6-Amino-3-chloro-2-pyridinyl)-6-fluoro-1-(2-methyl-6-(2-propanyl)phenyl)-4-((2S)-2-methyl-4-(2-propenoyl)-1-piperazinyl)pyrido[2,3-d]pyrimidin-2(1H)-one], for which the “Coupled exchange IC50 (5 min)” value is on record as 1.12 | nda μM.

`C=CC(=O)N1CCN(c2nc(=O)n(-c3ccccc3C(C)C)c3nc(-c4c(F)cccc4C#N)c(Cl)cc23)[C@@H](C)C1` (single isomer, unassigned) [Example 98-2]: the “Coupled exchange IC50 (5 min)” value is given as 3.38 | nda μM.

For the compound `C=CC(=O)N1CCN(c2nc(=O)n(-c3scnc3C3CC3)c3nc(-c4c(O)cccc4F)c(Cl)cc23)[C@@H](C)C1` [Example 56-3, 6-chloro-1-(4-cyclopropyl-1,3-thiazol-5-yl)-7-(2-fluoro-6-hydroxyphenyl)-4-((2S)-2-methyl-4-(2-propenoyl)-1-piperazinyl)pyrido[2,3-d]pyrimidin-2(1H)-one], the “Coupled exchange IC50 (5 min)” value is 3.85 | nda μM.

Consider `C=CC(=O)N1CCN(c2nc(=O)n(-c3c(C)cccc3C3CC3)c3nc(-c4ccccc4F)c(F)cc23)[C@@H](C)C1` [Example 58-14, 1-(2-cyclopropyl-6-methylphenyl)-6-fluoro-7-(2-fluorophenyl)-4-((2S)-2-methyl-4-(2-propenoyl)-1-piperazinyl)pyrido[2,3-d]pyrimidin-2(1H)-one], for which the “Coupled exchange IC50 (5 min)” value is on record as 2.45 | nda μM.

On to `C=CC(=O)N1CC(N(C)c2nc(=O)n(-c3c(C)ccnc3C(C)C)c3nc(-c4ccccc4F)c(Cl)cc23)C1` [76-2], for which the “Coupled exchange IC50 (5 min)” value is 20.1 | nda μM.

In the case of `C=CC(=O)N1CCN(c2nc(=O)n(-c3ccccc3C3(C)CC3)c3nc(Cl)c(Cl)cc23)[C@@H](C)C1` [Example 54-98], the “Coupled exchange IC50 (5 min)” value is on record as 5.45 | nda μM.

Take `C=CC(=O)N1CCN(c2nc(=O)n(-c3ccccc3C(C)C)c3nc(-c4ccccc4F)c(CC)nc23)[C@@H](C)C1` [Example 108, 6-Ethyl-7-(2-fluorophenyl)-4-((2S)-2-methyl-4-(2-propenoyl)-1-piperazinyl)-1-(2-(2-propanyl)phenyl)-2(1H)-pteridinone]: the “Coupled exchange IC50 (5 min)” value is 1 | nda μM.

As for `C=CC(=O)N1CCN(c2nc(=O)n(-c3ccccc3S(C)(=O)=O)c3nc(-c4c(O)cccc4F)c(Cl)cc23)[C@@H](C)C1` [Example 54-56, 6-chloro-7-(2-fluoro-6-hydroxyphenyl)-4-((2S)-2-methyl-4-(2-propenoyl)-1-piperazinyl)-1-(2-(methylsulfonyl)phenyl) pyrido[2,3-d]pyrimidin-2(1H)-one], the “Coupled exchange IC50 (5 min)” value was 1.42 | nda μM.

With `C=CC(=O)N1CCN(c2nc(=O)n(-c3ccccc3C(C)C)c3nc(N(C)C(C)C)c(Cl)cc23)[C@@H](C)C1` [Example 69-6, 6-chloro-7-(methyl(2-propanyl)amino)-4-((2S)-2-methyl-4-(2-propenoyl)-1-piperazinyl)-1-(2-(2-propanyl)phenyl)pyrido[2,3-d]pyrimidin-2(1H)-one], the “Coupled exchange IC50 (5 min)” value was 13.7 | nda μM.

Regarding `C=CC(=O)N1CCN(c2nc(=O)n(C)c3nc(-c4c(O)cccc4F)c(Cl)cc23)[C@@H](C)C1` [Example 55-34, 6-chloro-7-(2-fluoro-6-hydroxyphenyl)-1-methyl-4-((2S)-2-methyl-4-(2-propenoyl)-1-piperazinyl)pyrido[2,3-d]pyrimidin-2(1H)-one], the “Coupled exchange IC50 (5 min)” value is 20.8 | nda μM.

Turning to `C=CC(=O)N1CCN(c2nc(=O)n(-c3c(CC)cccc3CC)c3nc(N4CCOC(CC)C4)c(Cl)cc23)[C@@H](C)C1` (stereo partly drawn) [Example 66-15, 6-chloro-1-(2,6-diethylphenyl)-7-(2-ethyl-4-morpholinyl)-4-((2S)-2-methyl-4-(2-propenoyl)-1-piperazinyl)pyrido[2,3-d]pyrimidin-2(1H)-one], the “Coupled exchange IC50 (5 min)” value is given as 89.7 | nda μM.

Turning to `C=CC(=O)N1CCN(c2nc(=O)n(-c3c(CC)cccc3CC)c3nc(N4CCC(CC)(CC)C4)c(Cl)cc23)[C@@H](C)C1` [Example 66-20, 6-chloro-1-(2,6-diethylphenyl)-7-(3,3-diethyl-1-pyrrolidinyl)-4-((2S)-2-methyl-4-(2-propenoyl)-1-piperazinyl)pyrido[2,3-d]pyrimidin-2(1H)-one], the “Coupled exchange IC50 (5 min)” value is given as 28.2 | nda μM.

In the case of `C=CC(=O)N1CCC(c2cc(=O)n(CC(C)(C)C)c3nc(-c4ccccc4F)c(Cl)cc23)CC1` [Example 125, 6-Chloro-1-(2,2-dimethylpropyl)-7-(2-fluorophenyl)-4-(1-(2-propenoyl)-4-piperidinyl)-1,8-naphthyridin-2(1H)-one], the “Coupled exchange IC50 (5 min)” value is 35.4 | nda μM.

Consider `C=CC(=O)N1CCN(c2nc(=O)n(-c3ccccc3C(C)C)c3nc(-c4cc(F)ccc4O)c(Cl)cc23)[C@@H](C)C1` (single isomer, unassigned) [Example 54-78-1], for which the “Coupled exchange IC50 (5 min)” value was 7.26 | nda μM.

Turning to `C=CC(=O)N1CCN(c2nc(=O)n(-c3ccccc3C3CCC3)c3nc(-c4c(O)cccc4F)c(Cl)cc23)[C@@H](C)C1` (single isomer, unassigned) [Example 54-10-1], the “Coupled exchange IC50 (5 min)” value is listed as 1.21 | nda μM.

`C=CC(=O)N1CCN(c2nc(=O)n(-c3c(C)ccnc3C(C)C)c3nc(Cl)c(Cl)cc23)[C@@H](C)C1` (atropisomer, axis not shown; (P)) [Example 61-2-1, (P)-6,7-dichloro-1-(4-methyl-2-(2-propanyl)-3-pyridinyl)-4-((2S)-2 methyl-4-(2-propenoyl)-1-piperazinyl)pyrido[2,3-d]pyrimidin-2(1H)-one]: the “Coupled exchange IC50 (5 min)” value is 8.24 | nda μM.

Consider `C=CC(=O)N1CCN(c2nc(=O)n(-c3c(CC)cccc3CC)c3nc(N4CCOC[C@@H]4C)c(Cl)cc23)[C@@H](C)C1` [Example 66-30, 6-chloro-1-(2,6-diethylphenyl)-7-((3S)-3-methyl-4-morpholinyl)-4-((2S)-2-methyl-4-(2-propenoyl)-1-piperazinyl)pyrido[2,3-d]pyrimidin-2(1H)-one], for which the “Coupled exchange IC50 (5 min)” value is given as 16.05 | nda μM.

For the compound `C=CC(=O)N1CCN(c2nc(=O)n(-c3c(C)ccnc3C(C)C)c3nc(-c4ccccc4F)c(Cl)cc23)C2(CC2)C1` (single isomer, unassigned) [Example 78-4, (M)-6-chloro-7-(2-fluorophenyl)-1-(4-methyl-2-(2-propanyl)-3-pyridinyl)-4-(7-(2-propenoyl)-4,7-diazaspiro[2.5]octan-4-yl)pyrido[2,3-d]pyrimidin-2(1H)-one], the “Coupled exchange IC50 (5 min)” value is 30.3 | nda μM.

With `C=CC(=O)N1CCN(c2nc(=O)n(-c3c(C)ccnc3CC)c3nc(-c4c(O)cccc4F)c(F)cc23)[C@@H](C)C1` (single isomer, unassigned) [Example 57-1-2], the “Coupled exchange IC50 (5 min)” value is on record as 2.47 | nda μM.

As to `C=CC(=O)N1CCN(c2nc(=O)n(-c3ncccc3C3(C#N)CC3)c3nc(-c4c(O)cccc4F)c(Cl)cc23)[C@@H](C)C1` [Example 54-40, 1-(2-(6-chloro-7-(2-fluoro-6-hydroxyphenyl)-4-((2S)-2-methyl-4-(2-propenoyl)-1-piperazinyl)-2-oxopyrido[2,3-d]pyrimidin-1(2H)-yl)-3-pyridinyl) cyclopropane carbonitrile], the “Coupled exchange IC50 (5 min)” value is given as 21.3 | nda μM.

For `C=CC(=O)N1CCN(c2nc(=O)n(-c3c(C)cccc3C(C)C)c3nc(-c4c(C)ccc5[nH]ncc45)c(F)cc23)[C@@H](C)C1` (single isomer, unassigned) [Example 68-2-1], the “Coupled exchange IC50 (5 min)” value was 5.29 | nda μM.

`C=CC(=O)N1CCN(c2nc(=O)n(-c3ccccc3C3(C(F)(F)F)CC3)c3nc(-c4c(O)cccc4F)c(F)cc23)[C@@H](C)C1` (single isomer, unassigned) [Example 59-1-1]: the “Coupled exchange IC50 (5 min)” value is 11.8 | nda μM.

In the case of `C=CC(=O)N1CCN(c2nc(=O)n(-c3c(CC)cccc3CC)c3nc(N4CCOC5(CCCC5)C4)c(Cl)cc23)[C@@H](C)C1` [Example 66-17, 6-chloro-1-(2,6-diethylphenyl)-4-((2S)-2-methyl-4-(2-propenoyl)-1-piperazinyl)-7-(6-oxa-9-azaspiro[4.5]decan-9-yl)pyrido[2,3-d]pyrimidin-2(1H)-one], the “Coupled exchange IC50 (5 min)” value was 75.5 | nda μM.

The values above are taken from patent US11090304B2 (Amgen Inc., priority 2018, dated 2021).
